Where a SMILES comes first, the peptide text is derived from it. The star is where a group is joined. Cbz = O=C(OCc1ccccc1)*
Assays:
[1] = tested on: LNCaP; experiment: MTT cell growth assay, LNCaP; type: cell-based; details: Homo sapiens, 48 or 72 h, read-out: Cell line inhibition of growth GI50 LNCaP
Description: (§1) To probe further the effect of compound 2 and related compounds 1, 3, 5, 6 and 7, various concentrations of these compounds were added to 13 different cell lines and incubated for 48 or 72 h. An MTT assay was then performed to evaluate cell growth and survival.

[2] = biological target: T532C-Cdc48 (Saccharomyces cerevisiae, UniProt P25694, T532C); experiment: In vitro ATP hydrolysis (malachite green ATPase assay), T532C-Cdc48; type: biochemical, yeast
Description: (§2) Compounds were tested for their ability to inhibit the ATPase activity of purified wild type murine p97 and T532C-Cdc48, a mutant of yeast Cdc48 in which the residue analogous to cysteine 522, threonine 532, was converted to cysteine.
To determine whether cysteine 522 is necessary for inhibition of p97 by compound 2, a mutant of p97 was constructed in which cysteine 522 was converted to either alanine (C522A-mp97) or threonine (C522T-mp97). The IC50 values of compound 2 were measured the against various enzymes during a 20-minute preincubation (see Table 2). Mutation of cysteine 522 in p97 to either alanine or threonine decreased sensitivity to compound 2 by greater than 100-fold. On the other hand, yeast Cdc48, which normally is quite resistant to compound 2, became nearly 30-fold more sensitive to the compound upon introduction of a cysteine in place of threonine 532.

[3] = tested on: HeLa; experiment: MTT cell growth assay, HeLa; type: cell-based; details: Homo sapiens, 48 or 72 h, read-out: Cell line inhibition of growth GI50 HeLa
Description: as §1

[4] = tested on: MCF7; experiment: MTT cell growth assay, MCF7; type: cell-based; details: Homo sapiens, 48 or 72 h, read-out: Cell line inhibition of growth GI50 MCF7
Description: as §1

[5] = tested on: PC3; experiment: MTT cell growth assay, PC3; type: cell-based; details: Homo sapiens, PC-3, 48 or 72 h, read-out: Cell line inhibition of growth GI50 PC3
Description: as §1

[6] = tested on: RL; experiment: MTT cell growth assay, RL; type: cell-based; details: Homo sapiens, 48 or 72 h, read-out: Cell line inhibition of growth GI50 RL
Description: as §1

[7] = tested on: Molt4; experiment: MTT cell growth assay, Molt4; type: cell-based; details: Homo sapiens, MOLT-4, 48 or 72 h, read-out: Cell line inhibition of growth GI50 Molt4
Description: as §1

[8] = biological target: wild type murine p97 (Mus musculus, UniProt Q01853); experiment: In vitro ATP hydrolysis (malachite green ATPase assay), wild type murine p97; type: biochemical; details: 200 nM p97, 20 min preincubation at 23° C., malachite green; read-out: In vitro ATP Hydrolysis Activity IC50 WT-mP97
Description: as §2

[9] = tested on: RPMI8226; experiment: MTT cell growth assay, RPMI8226; type: cell-based; details: Homo sapiens, RPMI-8226, 48 or 72 h, read-out: Cell line inhibition of growth GI50 RPMI8226
Description: as §1

[10] = tested on: HTC116 WT; experiment: MTT cell growth assay, HTC116 WT; type: cell-based; details: 48 or 72 h, read-out: Cell line inhibition of growth GI50 HTC116 WT
Description: as §1

[11] = tested on: DU145; experiment: MTT cell growth assay, DU145; type: cell-based; details: Homo sapiens, DU-145, 48 or 72 h, read-out: Cell line inhibition of growth GI50 DU145
Description: as §1

[12] = tested on: MDAMB-231; experiment: MTT cell growth assay, MDAMB-231; type: cell-based; details: Homo sapiens, MDA-MB-231, 48 or 72 h, read-out: Cell line inhibition of growth GI50 MDAMB-231
Description: as §1

[13] = tested on: CCRF-CEM; experiment: MTT cell growth assay, CCRF-CEM; type: cell-based; details: Homo sapiens, 48 or 72 h, read-out: Cell line inhibition of growth GI50 CCRF-CEM
Description: as §1

[14] = tested on: HCT116 p53−/−; experiment: MTT cell growth assay, HCT116 p53−/−; type: cell-based; details: Homo sapiens, HCT-116, 48 or 72 h, read-out: Cell line inhibition of growth GI50 HCT116 p53−/−
Description: as §1

[15] = tested on: Ub-G76V-GFP/HeLa cells; experiment: Degradation of pre-accumulated Ub-G76V-GFP (cycloheximide chase after MG132 washout); type: cell-based; details: for % K: relative to 0 μM
Description: To evaluate this possibility, an assay was developed to determine the rate of degradation of pre-accumulated Ub-G76V-GFP molecules. […] Cells were then washed with PBS three times remove the MG132. Cells were then refreshed by adding DMEM containing cycloheximide (50 μg/mL; to block production of more Ub-G76V-GFP) and test compounds (0˜10 μM) were added into cells. Eight 96-well plates were prepared and one of the plates was imaged at 25, 50, 70, 100, 110, 125, 145, or 170 min after washing with PBS three times. After washing out MG132, degradation of pre-accumulated Ub-G76V-GFP appears to follow pseudo-first order reaction. Rate constant (K; 1/min) can be determined from the slope of plotting Ln (Fold Accumulation) versus Time (min) (see FIG. 17 and FIG. 18).
Ub-G76V-GFP/HeLa cells were treated with MG132 (2 μM) for 1 h and washed with PBS three times. DMEM containing cycloheximide (50 μg/mL) and compound 8 (0-10 μM) was added into cells. Eight 96-well plates were prepared and one of the plates was imaged at 25, 50, 70, 100, 110, 125, 145, or 170 min after washing with PBS three times.

[16] = tested on: HeLa cell line that stably expresses UbG76V-GFP; experiment: Accumulation of UbG76V-GFP in HeLa cells (fluorescence microscopy); type: cell-based; details: fluorescence microscopy
Description: As a control, the same cells were treated with the proteasome inhibitor MG132. In the latter set of experiments, a HeLa cell line that stably expresses UbG76V-GFP was transfected with either wild type (WT), D1 mutant (E305Q), D2 mutant (E578Q) or E305Q, E578Q double mutant (QQ) murine 97-pcDNA4.1 plasmid (0.05 μg/100 μL) in a 96-well plate. After 23 h, the intensity of UbG76V-GFP signal was measured on a Molecular Devices ImageXpress automated fluorescence microscope. […] The direct accumulation of Ub-G76V-GFP caused by compound 2 at 25 μM is 4-fold less than that caused by MG132 at 2 μM. This is likely due to the fact that only fully folded Ub-G76V-GFP should require p97 for degradation by the proteasome.
As a second test of whether compound 8 can inhibit p97 in vivo, it was evaluated whether it can cause accumulation of the UbG76V-GFP reporter. A HeLa cell line that stably expresses UbG76V-GFP was treated with compound 8 for 1 h at 37° C., and was then evaluated by fluorescence microscopy. As a control, the same cells were treated with the proteasome inhibitor MG132. […] The level of GFP fluorescence was quantified in cells treated with compound 8 at different doses and for different periods of time (FIG. 28).

[17] = tested on: MRC5-SV40; experiment: CellTiter-Glo growth inhibition, MRC5 cells engineered to express SV40; type: cell-based
[18] = tested on: MRC5-WT; experiment: CellTiter-Glo growth inhibition, parental MRC5 cells; type: cell-based; details: Homo sapiens, 48 h at 37° C., read-out: Cell line inhibition of growth GI50 MRC5-WT

Chain of wild type murine p97 (Q01853 whole entry): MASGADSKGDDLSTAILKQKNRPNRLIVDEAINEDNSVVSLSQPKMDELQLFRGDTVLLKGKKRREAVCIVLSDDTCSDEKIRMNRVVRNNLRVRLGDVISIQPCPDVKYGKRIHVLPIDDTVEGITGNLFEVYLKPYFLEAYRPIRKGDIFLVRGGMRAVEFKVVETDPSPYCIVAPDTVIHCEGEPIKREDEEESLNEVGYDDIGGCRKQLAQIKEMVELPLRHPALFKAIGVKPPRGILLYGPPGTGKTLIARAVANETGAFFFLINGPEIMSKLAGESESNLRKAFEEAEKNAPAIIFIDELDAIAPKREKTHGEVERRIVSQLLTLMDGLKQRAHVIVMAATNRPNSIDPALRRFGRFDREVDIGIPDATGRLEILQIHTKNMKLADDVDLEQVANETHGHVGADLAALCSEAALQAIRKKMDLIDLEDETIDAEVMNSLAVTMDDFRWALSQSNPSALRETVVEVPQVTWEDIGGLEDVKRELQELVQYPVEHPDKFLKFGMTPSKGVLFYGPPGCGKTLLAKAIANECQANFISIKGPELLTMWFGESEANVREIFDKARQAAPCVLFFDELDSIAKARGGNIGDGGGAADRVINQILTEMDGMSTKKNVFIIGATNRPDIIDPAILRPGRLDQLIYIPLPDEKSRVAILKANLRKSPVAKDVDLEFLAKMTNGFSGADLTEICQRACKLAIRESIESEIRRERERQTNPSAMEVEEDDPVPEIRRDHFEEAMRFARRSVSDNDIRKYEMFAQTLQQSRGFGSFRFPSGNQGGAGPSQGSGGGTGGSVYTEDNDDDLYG
Chain of T532C-Cdc48 (P25694 whole entry T532C): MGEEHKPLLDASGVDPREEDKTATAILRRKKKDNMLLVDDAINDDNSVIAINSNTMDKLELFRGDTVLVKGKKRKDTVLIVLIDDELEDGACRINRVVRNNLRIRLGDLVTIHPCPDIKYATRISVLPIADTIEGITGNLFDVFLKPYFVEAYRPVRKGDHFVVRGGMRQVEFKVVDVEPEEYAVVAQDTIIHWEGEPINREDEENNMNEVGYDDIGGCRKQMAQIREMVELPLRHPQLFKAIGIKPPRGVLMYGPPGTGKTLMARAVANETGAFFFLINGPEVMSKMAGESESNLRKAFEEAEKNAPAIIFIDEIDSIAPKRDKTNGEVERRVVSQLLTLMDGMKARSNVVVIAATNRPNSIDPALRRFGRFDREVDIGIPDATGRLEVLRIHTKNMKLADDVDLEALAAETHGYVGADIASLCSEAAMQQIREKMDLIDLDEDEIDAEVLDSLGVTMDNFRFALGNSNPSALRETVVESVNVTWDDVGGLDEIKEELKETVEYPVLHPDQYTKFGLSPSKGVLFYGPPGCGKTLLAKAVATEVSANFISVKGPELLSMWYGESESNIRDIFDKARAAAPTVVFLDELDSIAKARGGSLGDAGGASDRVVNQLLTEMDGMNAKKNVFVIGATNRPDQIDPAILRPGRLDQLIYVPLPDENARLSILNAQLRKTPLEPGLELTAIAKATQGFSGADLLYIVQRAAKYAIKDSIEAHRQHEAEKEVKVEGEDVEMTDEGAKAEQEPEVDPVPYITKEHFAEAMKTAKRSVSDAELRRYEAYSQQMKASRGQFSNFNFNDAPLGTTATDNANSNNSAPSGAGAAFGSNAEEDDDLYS

SMILES | GI50 [1] [nM] | IC50 [2] [nM] | GI50 [3] [nM] | GI50 [4] [nM] | GI50 [5] [nM] | GI50 [6] [nM] | GI50 [7] [nM] | IC50 [8] [nM] | GI50 [9] [nM] | GI50 [10] [nM] | GI50 [11] [nM] | GI50 [12] [nM] | GI50 [13] [nM] | GI50 [14] [nM] | further results
C=CC(=O)Nc1ncnc2c1c(-c1ccc3ccccc3c1)nn2C(C)(C)C [Compound 6] | 2500 ± 700 | 24000 ± 7000 | 1200 ± 200 | 1900 ± 400 | 300 ± 230 | 1300 ± 400 | 700 ± 100 | 3000 ± 1000 | 1200 ± 300 | 2800 ± 1600 | 2300 ± 700 | 5900 ± 2600 | 1300 ± 400 | 2400 ± 1000 | –
C=CC(=O)N(C(=O)C=C)c1ncnc2c1c(-c1ccc3ccccc3c1)nn2C(C)(C)C [Compound 7] | 11000 ± 4000 | 22000 ± 11000 | 1800 ± 600 | 3600 ± 1000 | 6200 ± 1200 | 1400 ± 700 | 1200 ± 500 | 1300 ± 700 | 3400 ± 1700 | 5500 ± 1400 | 4900 ± 600 | 21000 ± 11000 | 2400 ± 1100 | 13000 ± 4000 | –
CC(C)C[C@@H](C=O)NC(=O)[C@H](CC(C)C)NC(=O)[C@H](CC(C)C)NC(=O)OCc1ccccc1 [MG132, reference compound] (Cbz-Leu-Leu-Leu-aldehyde) | – | – | – | – | – | – | – | – | – | – | – | – | – | – | K, rate constant of Ub-G76V-GFP degradation ([15]; 0.01 μM): 0.0336 min⁻¹; % K ([15]; 0.01 μM): 88%; K, rate constant of Ub-G76V-GFP degradation ([15]; 0.04 μM): 0.0322 min⁻¹; % K ([15]; 0.04 μM): 84%; K, rate constant of Ub-G76V-GFP degradation ([15]; 0.16 μM): 0.0260 min⁻¹; % K ([15]; 0.16 μM): 68%; K, rate constant of Ub-G76V-GFP degradation ([15]; 0.63 μM): 0.0095 min⁻¹; % K ([15]; 0.63 μM): 25%; K, rate constant of Ub-G76V-GFP degradation ([15]; 2.5 μM): 0.0005 min⁻¹; % K ([15]; 2.5 μM): 1%; K, rate constant of Ub-G76V-GFP degradation ([15]; 10 μM): 0.0009 min⁻¹; % K ([15]; 10 μM): 2%; IC50 ([15]; Homo sapiens, HeLa, 1 h, read-out: IC50 on the decay of Ub-G76V-GFP): 240 ± 40 nM; accumulation of UbG76V-GFP ([16]; 1 h at 37° C.): caused detectable accumulation of UbG76V-GFP; accumulation of UbG76V-GFP ([16]; 4 hours at 37° C.): caused accumulation of UbG76V-GFP
CC(C)C[C@H](NC(=O)[C@H](Cc1ccccc1)NC(=O)c1cnccn1)B(O)O [Velcade, reference compound] | – | – | – | – | – | – | – | – | – | – | – | – | – | – | GI50 ([17]; Homo sapiens, MRC5, 48 h at 37° C., CellTiter-Glo, read-out: Cell line inhibition of growth GI50 MRC5-SV40): 100 ± 10 nM; greater sensitivity of SV40-transformed cells than WT cell line ([17]; MRC5-SV40 vs MRC5-WT GI50): 2 fold; GI50 [18]: 200 ± 70 nM

Source: patent publication US9089572B2, “Inhibitors of p97” (California Institute of Technology, priority 2008, dated 2015)
